Among the data in PubChem BioAssay (NCI) are TGI and GI50 values, retold here.

Several values for one entry are separate records, joined by “and”; a condition that tells them apart may be missing. Equal entries are not always repeated.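 Compound exposure: 48 hours, 5 concentrations, 96-well plates. GI50 is the concentration that inhibits growth by half. The concentration for full growth arrest is given as TGI.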 Bounds are passed on as bounds.

In one experiment the test system is SK-MEL-28 melanoma. Nature of the experiment: NCI tumour cell line growth inhibition, 48 h.
As for `COc1ccc2[nH]c3c4c(ccc3c2c1)C(=O)C=CC4=O`, the TGI worked out at 20.2 µM.

As to `COc1ccc2c(O)cc3c(c2c1)[C@H](CCl)CN3C(=O)c1cc2cc(NC(=O)CCN3CCOCC3)ccc2[se]1`, the GI50 was less than 0.001 µM and the TGI was less than 0.001 µM.

With `COc1cc2c(cc1O)C1Cc3ccc(OC)c(O)c3C(C2)N1C` (stereo not given), the TGI was more than 100 µM.

For the molecule `CCOC(=O)CNC(=O)c1ccccc1Nc1ccnc(C(F)(F)F)c1`, the GI50 was 28.1 µM and the TGI is more than 83.3 µM.

For `COc1ccc2c(c1)[C@@]13CCCC[C@H]1[C@@H](C2)N(C)CC3=O`, the TGI was determined as 30 µM.

As to `COc1cccc(/C(COc2ccc3c(c2)oc(=O)c2cc(OC)ccc23)=N/O)c1`, the GI50 is 4.28 µM and the TGI is more than 100 µM.

With `N=C(N)SCc1cccc(-c2nc3ccccc3c(=O)o2)c1`, the TGI is more than 100 µM.

For the molecule `COc1cc2c(c(OC)n1)[C@]1(O)[C@H](O)[C@H](CN(C)C)[C@@H](c3ccccc3)[C@]1(c1ccc(C#N)cc1)O2`, the GI50 is 0.0334 µM and 0.0313 µM; the TGI was 0.813 µM and 1.56 µM.

As to `C=CCSS/C=C/CS(=O)CC=C` (stereo not given), the TGI came out at 49.9 µM.

For the molecule `Cc1cc2c(cc1Cl)SC(=Nc1ccc(Cl)cc1)N(S(=O)(=O)c1ccccc1)S2(=O)=O`, the GI50 was 12.2 µM and the TGI turned out to be 63.5 µM.

A further experiment has as its system SK-MEL-5 melanoma. Nature of the experiment: NCI tumour cell line growth inhibition, 48 h.
In turn, `Cc1c(C2=C(Br)C(=O)N(C)C2=O)c(=O)n(C)c(=O)n1C` showed a TGI of 52.1 µM.

`N#CC(=NCCO)C1=C(O)c2ccccc2C1=O` displayed a TGI of more than 100 µM.

Regarding `NC(CS/C(Cl)=C/Cl)C(=O)O` (stereo not given), the GI50 was 3.11 µM and the TGI turned out to be 12.9 µM.

Turning to `O=C(Nc1ccc(CO)cc1)c1coc2ccccc2c1=O`, the GI50 was more than 100 µM and the TGI is more than 100 µM.

With `Cc1cc(N/N=C/c2nc(-c3ccc(Br)cc3)oc2C)c2cc(Br)ccc2n1`, the GI50 was 13.4 µM and the TGI turned out to be 26.1 µM.

In the case of `CC(=O)/C=C/c1ccc(C#Cc2ccccc2)s1`, the GI50 is 11.1 µM and the TGI was 23.1 µM.

With `COc1ccc2c(c1)C(C)Cc1c(ncnc1-n1c(C)nc3ccccc31)N2C` (stereo not given), the GI50 was 3.42 µM and the TGI was 13 µM.

Take `CC(C)OC(=O)NNc1cc(Cl)ccc1Cl`: the TGI was more than 100 µM.

In turn, `COc1ccc2[nH]c3c4c(ccc3c2c1)C(=O)C=CC4=O` yielded a TGI of 40.1 µM.

On to `COc1ccc2c(O)cc3c(c2c1)[C@H](CCl)CN3C(=O)c1cc2cc(NC(=O)CCN3CCOCC3)ccc2[se]1`, for which the GI50 is less than 0.001 µM and the TGI is less than 0.001 µM.

`COc1cc2c(cc1O)C1Cc3ccc(OC)c(O)c3C(C2)N1C` (stereo not given) yielded a TGI of more than 100 µM.

In the case of `CCOC(=O)CNC(=O)c1ccccc1Nc1ccnc(C(F)(F)F)c1`, the GI50 is 14.8 µM and the TGI was 40.4 µM.

Molecule `COc1ccc2c(c1)[C@@]13CCCC[C@H]1[C@@H](C2)N(C)CC3=O` showed a TGI of 61 µM.

`COc1cccc(/C(COc2ccc3c(c2)oc(=O)c2cc(OC)ccc23)=N/O)c1`: the GI50 was 4.95 µM and the TGI is 80.5 µM.

Molecule `N=C(N)SCc1cccc(-c2nc3ccccc3c(=O)o2)c1` had a TGI of more than 100 µM.

In the case of `COc1cc2c(c(OC)n1)[C@]1(O)[C@H](O)[C@H](CN(C)C)[C@@H](c3ccccc3)[C@]1(c1ccc(C#N)cc1)O2`, the GI50 was 0.0206 µM and 0.0196 µM; the TGI was 0.0676 µM and 0.556 µM.

For `C=CCSS/C=C/CS(=O)CC=C` (stereo not given), the TGI is more than 100 µM.

Take `Cc1cc2c(cc1Cl)SC(=Nc1ccc(Cl)cc1)N(S(=O)(=O)c1ccccc1)S2(=O)=O`: the GI50 is 6.82 µM and the TGI amounted to 19.2 µM.

For the next experiment, the system named is TK-10 renal. Nature of the experiment: NCI tumour cell line growth inhibition, 48 h.
For the molecule `Cc1c(C2=C(Br)C(=O)N(C)C2=O)c(=O)n(C)c(=O)n1C`, the TGI was found to be 31.8 µM.

`N#CC(=NCCO)C1=C(O)c2ccccc2C1=O` showed a TGI of more than 100 µM.

`NC(CS/C(Cl)=C/Cl)C(=O)O` (stereo not given): the GI50 was more than 100 µM and the TGI is more than 100 µM.

With `O=C(Nc1ccc(CO)cc1)c1coc2ccccc2c1=O`, the GI50 is more than 100 µM and the TGI was more than 100 µM.

For `Cc1cc(N/N=C/c2nc(-c3ccc(Br)cc3)oc2C)c2cc(Br)ccc2n1`, the GI50 is 1.97 µM and the TGI worked out at 3.93 µM.

For `CC(=O)/C=C/c1ccc(C#Cc2ccccc2)s1`, the GI50 is 16.8 µM and the TGI is 32.9 µM.

With `COc1ccc2c(c1)C(C)Cc1c(ncnc1-n1c(C)nc3ccccc31)N2C` (stereo not given), the GI50 is 7.28 µM and the TGI was 45.9 µM.

The molecule `CC(C)OC(=O)NNc1cc(Cl)ccc1Cl` returned a TGI of more than 100 µM.

Turning to `COc1ccc2[nH]c3c4c(ccc3c2c1)C(=O)C=CC4=O`, the TGI was found to be 28.1 µM.

In the case of `COc1ccc2c(O)cc3c(c2c1)[C@H](CCl)CN3C(=O)c1cc2cc(NC(=O)CCN3CCOCC3)ccc2[se]1`, the GI50 was less than 0.001 µM.

In turn, `COc1cc2c(cc1O)C1Cc3ccc(OC)c(O)c3C(C2)N1C` (stereo not given) gave a TGI of more than 100 µM.

Regarding `CCOC(=O)CNC(=O)c1ccccc1Nc1ccnc(C(F)(F)F)c1`, the GI50 is 41.6 µM and the TGI is more than 100 µM.

`COc1ccc2c(c1)[C@@]13CCCC[C@H]1[C@@H](C2)N(C)CC3=O` registered a TGI of 40.7 µM.

As to `COc1cccc(/C(COc2ccc3c(c2)oc(=O)c2cc(OC)ccc23)=N/O)c1`, the GI50 is 16.5 µM and the TGI was more than 100 µM.

`N=C(N)SCc1cccc(-c2nc3ccccc3c(=O)o2)c1`: the TGI is more than 100 µM.

For `COc1cc2c(c(OC)n1)[C@]1(O)[C@H](O)[C@H](CN(C)C)[C@@H](c3ccccc3)[C@]1(c1ccc(C#N)cc1)O2`, the GI50 was 0.0543 µM and 0.0672 µM; the TGI is 2.9 µM and 6.22 µM.

In turn, `C=CCSS/C=C/CS(=O)CC=C` (stereo not given) showed a TGI of more than 100 µM.

Consider `Cc1cc2c(cc1Cl)SC(=Nc1ccc(Cl)cc1)N(S(=O)(=O)c1ccccc1)S2(=O)=O`, for which the GI50 is 11.9 µM and the TGI is 24.6 µM.
